Measured values taken from patent publication US10526287B2, “LSD1 inhibitors and uses thereof” (Constellation Pharmaceuticals, Inc., priority 2015, dated 2020).
Counter-ions that a name gives are not always drawn.

target: LSD1 (Homo sapiens, UniProt O60341); test: Biochemical assay for LSD1 activity (LSD1 demethylase TR-FRET); settings: not given

| Structure (SMILES) | IC50 |
| --- | --- |
| CC(=Cc1ccc(C#N)cc1)C1CC1N (stereo not drawn) [Compound 129, 4-(2-(2-aminocyclopropyl)prop-1-en-1-yl)benzonitrile Hydrochloride] | > 10000 nM |

same assay, conditions: Table 5; biotinylated H3K4me1 peptide, 50 minutes at room temperature, TR-FRET; read-out: LSD1_Pep_TR-FRET_1.0 (IC50 T50)

| IC50 | Structure (SMILES) |
| --- | --- |
| 100 to 1000 nM | O=C(O)c1ccc(CN2CCC(CNC3CC3/C=C/c3ccccc3)CC2)cc1 (stereo not drawn) [Compound 101, (E)-4-((4-(((2-styrylcyclopropypamino)methyl)piperidin-1-yl)methyl)benzoic Acid Dihydrochloride] |
| 100 to 1000 nM | O=C(O)CCN1CCC(CNC2CC2/C=C/c2ccccc2)CC1 (stereo not drawn) [Compound 105, (E)-3-(4-(((2-styrylcyclopropyl)amino)methyl)piperidin-1-yl)propanoic acid] |
| 100 to 1000 nM | C(=C\C1CC1NCC1CCN(Cc2ccccc2)CC1)/c1ccccc1 (stereo not drawn) [Compound 106] |
| < 100 nM | O=C(O)CN1CCC(CNC2CC2/C=C/c2ccccc2)CC1 (stereo not drawn) [Compound 111, (E)-3-(4-(((2-styrylcyclopropyl)amino)methyl)piperidin-1-yl)acetic acid] |
| 100 to 1000 nM | CC1(N)CC1/C=C/c1ccccc1 (stereo not drawn) [Compound 112, 1-methyl-2-((E)-styryl)cyclopropanamine] |
| < 100 nM | CCS(=O)(=O)CCN1CCC(CNC2CC2/C=C/c2ccccc2)CC1 (stereo not drawn) [Compound 113] |

same assay, conditions: Table 6; biotinylated H3K4me1 peptide, 50 minutes at room temperature, TR-FRET; read-out: LSD1_Pep_TR-FRET_1.0 (IC50 T50)

| IC50 | Structure (SMILES) |
| --- | --- |
| < 100 nM | C/C(=C\c1ccccc1)[C@@H]1C[C@H]1N[C@H]1CC[C@H](NCc2ccc(C(=O)O)cc2)CC1 (single isomer, unassigned) [Compound 150, 4-((((trans)-4-(((trans)-2-((E)-1-phenylprop-1-en-2-yl)cyclopropyl)amino)cyclohexyl)amino)methyl)benzoic acid bis(trifluoroacetic acid) salt] |
| < 100 nM | C/C(=C\c1ccccc1)[C@@H]1C[C@H]1N[C@H]1CC[C@H](NCCC(N)=O)CC1 (single isomer, unassigned) [Compound 151, 3-(((trans)-4-(((trans)-2-((E)-1-phenylprop-1-en-2-yl)cyclopropyl)amino)cyclohexyl)amino)propanamide bis(trifluoroacetic acid) salt] |
| < 100 nM | C/C(=C\c1ccccc1)[C@@H]1C[C@H]1N[C@H]1CC[C@@H](NCCC(N)=O)CC1 (single isomer, unassigned) [Compound 152, 3-(((cis)-4-(((trans)-2-((E)-1-phenylprop-1-en-2-yl)cyclopropyl)amino)cyclohexyl)amino)propanamide bis(trifluoroacetic acid) salt] |
| < 100 nM | C/C(=C\c1ccccc1)[C@@H]1C[C@H]1N[C@H]1CC[C@H](NCCC#N)CC1 (single isomer, unassigned) [Compound 155, 3-(((trans)-4-(((trans)-2-((E)-1-phenylprop-1-en-2-yl)cyclopropyl)amino)cyclohexyl)amino)propanenitrile bis(trifluoroacetic acid) salt] |
| < 100 nM | C/C(=C\c1ccccc1)[C@@H]1C[C@H]1N[C@H]1CC[C@@H](NCCC#N)CC1 (single isomer, unassigned) [Compound 156, 3-(((cis)-4-(((trans)-2-((E)-1-phenylprop-1-en-2-yl)cyclopropyl)amino)cyclohexyl)amino)propanenitrile bis(trifluoroacetic acid) salt] |
| < 100 nM | CC/C(=C\c1ccccc1)[C@@H]1C[C@H]1N[C@H]1CC[C@H](NCC(C)(C)C#N)CC1 (single isomer, unassigned) [Compound 157, 2,2-dimethyl-3-(((trans)-4-(((trans)-2-((E)-1-phenylbut-1-en-2-yl)cyclopropyl)amino)cyclohexyl)amino)propanenitrile bis(trifluoroacetic acid salt)] |
| < 100 nM | CC/C(=C\c1ccccc1)[C@@H]1C[C@H]1N[C@H]1CC[C@@H](NCC(C)(C)C#N)CC1 (single isomer, unassigned) [Compound 158, 2.2-dimethyl-3-(((cis)-4-(((trans)-2-((E)-1-phenylbut-1-en-2-yl)cyclopropyl)amino)cyclohexyl)amino)propanenitrile bis(trifluoroacetic acid salt)] |
| < 100 nM | CC/C(=C\c1ccccc1)[C@@H]1C[C@H]1N[C@H]1CC[C@H](NCCO)CC1 (single isomer, unassigned) [Compound 159, 2-(((trans)-4-(((trans)-2-((E)-1-phenylbut-1-en-2-yl)cyclopropyl)amino)cyclohexyl)amino)ethan-1-ol bis(trifluoroacetic acid salt)] |
| < 100 nM | CC/C(=C\c1ccccc1)[C@@H]1C[C@H]1N[C@H]1CC[C@H](NCc2c(OC)cc(C)[nH]c2=O)CC1 (single isomer, unassigned) [Compound 160, 4-methoxy-6-methyl-3-((((trans)-4-(((trans)-2-((E)-1-phenylbut-1-en-2-yl)cyclopropyl)amino)cyclohexyl)amino)methyl)pyridin-2(1H)-one bis(trifluoroacetic acid salt)] |
| < 100 nM | CC/C(=C\c1ccccc1)[C@@H]1C[C@H]1N[C@H]1CC[C@H](NCC2(CO)COC2)CC1 (single isomer, unassigned) [Compound 161, (3-((((trans)-4-(((trans)-2-((E)-1-phenylbut-1-en-2-yl)cyclopropyl)amino)cyclohexyl)amino)methyl)oxetan-3-yl)methanolbis(trifluoroacetic acid salt)] |
| < 100 nM | CC/C(=C\c1ccccc1)[C@@H]1C[C@H]1N[C@H]1CC[C@H](NCCOCC(=O)O)CC1 (single isomer, unassigned) [Compound 162, 2-(2-(((trans)-4-(((trans)-2-((E)-1-phenylbut-1-en-2-yl)cyclopropyl)amino)cyclohexyl)amino)ethoxy)acetic acidbis(trifluoroacetic acid salt)] |
| < 100 nM | CCC1(NCC2CCNCC2)CC1/C(C)=C/c1ccccc1 (stereo not drawn) [Compound 173, 1-ethyl-2-((E)-1-phenylprop-1-en-2-yl)-N-(piperidin-4-ylmethyl)cyclopropanamine Dihydrochloride] |
| < 100 nM | CCC1(NC2CCNCC2)CC1/C(C)=C/c1ccccc1 (stereo not drawn) [Compound 174, bis(trifluoroacetic Acid) Salt] |
| < 100 nM | Fc1ccccc1/C=C/C1CC1NCC1CCNCC1 (stereo not drawn) [Compound 186, (E)-2-(2-fluorostyryl)-N-(piperidin-4-ylmethyl)cyclopropan-1-amine Dihydrochloride] |
| 1000 to 10000 nM | COc1ccc(/C=C(\C)[C@@H]2C[C@H]2N)cc1 [compound 130, 2,2,2-trifluoroacetate] |
| 100 to 1000 nM | C/C(=C\c1ccccc1)[C@@H]1C[C@H]1NC1CCN(Cc2ccc(C(=O)O)cc2)CC1 [compound 192] |

same assay, conditions: Table 7; biotinylated H3K4me1 peptide, 50 minutes at room temperature, TR-FRET; read-out: LSD1_Pep_TR-FRET_1.0 (IC50 T50)

| IC50 | Structure (SMILES) |
| --- | --- |
| < 100 nM | CC/C(=C\c1ccccc1)[C@@H]1C[C@H]1NC1CC2(C1)CN(Cc1ccc(C(=O)O)cn1)C2 (single isomer, unassigned) [Compound 249, 6-((6-(((1R,2S or 1S,2R)-2-(E)-1-phenylbut-1-en-2-yl)cyclopropyl)amino)-2-azaspiro[3.3]heptan-2-yl)methyl)nicotinic Acid Bis Trifluoroacetate] |
| < 100 nM | CC/C(=C\c1ccccc1)[C@@H]1C[C@H]1NC1CC2(C1)CN(Cc1ccc(C(=O)O)cc1)C2 (single isomer, unassigned) [Compound 250] |
| < 100 nM | CC/C(=C\c1ccccc1)[C@@H]1C[C@H]1NC1CC2(C1)CN(Cc1ccc(C(=O)O)nc1)C2 (single isomer, unassigned) [Compound 251] |
| < 100 nM | CC/C(=C\c1ccccc1)[C@@H]1C[C@H]1NC1CC2(C1)CN(Cc1ccc(-c3nnn[nH]3)cc1)C2 (single isomer, unassigned) [Compound 252] |
| < 100 nM | CC/C(=C\c1ccccc1)[C@@H]1C[C@H]1NC1CC2(C1)CN(Cc1ccc(C(=O)O)cc1C)C2 (single isomer, unassigned) [Compound 254] |
| < 100 nM | CC/C(=C\c1ccccc1)[C@@H]1C[C@H]1NC1CC2(C1)CN(Cc1ccc(C(=O)O)c(C)c1)C2 (single isomer, unassigned) [Compound 255] |
| < 100 nM | CC/C(=C\c1ccccc1)[C@@H]1C[C@H]1NC1CC2(C1)CN(Cc1cnc(C(=O)O)cn1)C2 (single isomer, unassigned) [Compound 256] |
| < 100 nM | CC/C(=C\c1ccccc1)[C@@H]1C[C@H]1N[C@H]1CC[C@H](NCc2ccc(C(=O)O)nc2)CC1 (single isomer, unassigned) [Compound 260, 5-((((trans)-4-(((1R,2S or 1S,2R)-2-((E)-1-phenylbut-1-en-2-yl)cyclopropyl)amino)cyclohexyl)amino)methyl)picolinic acid bis trifluoroacetate] |
| < 100 nM | CC/C(=C\c1ccccc1)[C@@H]1C[C@H]1NC1CC2(C1)CN(CCC(=O)O)C2 (single isomer, unassigned) [Compound 266, 3-(6-(((1R,2S or 1S,2R)-2-((E)-1-phenylbut-1-en-2-yl)cyclopropyl)amino)-2-azaspiro[3.3]heptan-2-yl)propanoic Acid (Single Stereoisomer)] |
| < 100 nM | CC/C(=C\c1ccccc1)[C@@H]1C[C@H]1NC1CC2(C1)CN(CC(N)=O)C2 (single isomer, unassigned) [Compound 268, 2-(6-(((1R,2S or 1S,2R)-2-(E)-1-phenylbut-1-en-2-yl)cyclopropyl)amino)-2-azaspiro[3.3]heptan-2-yl)acetamide Bis Trifluoroacetate (Single Stereoisomer)] |
